Results published in ChEMBL document CHEMBL4342403, “New evolutions in the BACE1 inhibitor field from 2014 to 2018” (Bioorg Med Chem Lett, 2019).

What was measured:
Beta-secretase 2 [1] = target: T1, Beta-secretase 2 (Homo sapiens, UniProt Q9Y5Z0); assay: Inhibition of BACE2 (unknown origin)
T1 sequence (Q9Y5Z0 whole entry): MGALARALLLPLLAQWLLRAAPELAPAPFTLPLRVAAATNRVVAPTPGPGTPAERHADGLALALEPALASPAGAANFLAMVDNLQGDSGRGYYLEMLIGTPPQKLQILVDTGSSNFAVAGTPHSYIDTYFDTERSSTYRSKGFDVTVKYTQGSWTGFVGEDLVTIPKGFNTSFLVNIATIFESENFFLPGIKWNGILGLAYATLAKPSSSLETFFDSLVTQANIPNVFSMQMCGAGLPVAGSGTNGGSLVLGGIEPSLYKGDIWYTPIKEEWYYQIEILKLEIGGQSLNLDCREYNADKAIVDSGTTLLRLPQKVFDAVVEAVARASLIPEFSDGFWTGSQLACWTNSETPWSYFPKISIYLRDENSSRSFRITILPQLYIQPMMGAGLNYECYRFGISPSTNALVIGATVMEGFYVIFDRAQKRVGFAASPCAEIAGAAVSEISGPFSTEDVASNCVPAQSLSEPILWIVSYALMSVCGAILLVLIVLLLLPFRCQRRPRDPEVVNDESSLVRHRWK

Beta-secretase 1 [2] = target: T2, Beta-secretase 1 (Homo sapiens, UniProt P56817); assay: Inhibition of BACE1 (unknown origin) by cell-based assay
T2 sequence (P56817 whole entry): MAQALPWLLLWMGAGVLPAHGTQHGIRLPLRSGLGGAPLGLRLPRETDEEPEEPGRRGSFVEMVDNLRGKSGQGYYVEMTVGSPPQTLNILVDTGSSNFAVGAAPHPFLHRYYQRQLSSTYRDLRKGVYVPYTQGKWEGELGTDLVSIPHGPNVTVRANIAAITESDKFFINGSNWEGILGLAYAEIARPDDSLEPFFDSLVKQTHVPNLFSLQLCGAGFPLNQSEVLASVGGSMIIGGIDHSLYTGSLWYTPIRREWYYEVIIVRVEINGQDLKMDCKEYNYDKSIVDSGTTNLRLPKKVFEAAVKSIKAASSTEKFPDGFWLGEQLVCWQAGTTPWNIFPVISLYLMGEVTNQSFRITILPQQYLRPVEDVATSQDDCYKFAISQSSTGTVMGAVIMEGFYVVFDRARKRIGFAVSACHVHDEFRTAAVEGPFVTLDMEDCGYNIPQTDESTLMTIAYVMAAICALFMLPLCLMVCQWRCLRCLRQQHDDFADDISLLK

Beta-secretase 1 [3] = target: T2, Beta-secretase 1; assay: Inhibition of BACE1 (unknown origin)
Beta-secretase 1 [4] = target: T2, Beta-secretase 1; assay: Inhibition of BACE1 in HEK293 cells harboring APP assessed as reduction in amyloidbeta 40 level incubated for 18 to 20 hrs by AlphaLISA Assay; format: cell-based
Beta-secretase 1 [5] = target: T2, Beta-secretase 1; assay: Inhibition of BACE1 (unknown origin) incubated for 120 mins using APP swedish mutant as substrate by FRET assay
Beta-secretase 1 [6] = target: T2, Beta-secretase 1; assay: Inhibition of BACE1 in human SK-N-BE(2) cells expressing human APP695 assessed as reduction in amyloidbeta (1 to 42 residues) level incubated for 18 hrs by sandwich ELISA; format: cell-based
Beta-secretase 2 [7] = target: T1, Beta-secretase 2; assay: Inhibition of BACE2 (unknown origin) incubated for 450 mins using APP swedish mutant as substrate by FRET assay
Beta-secretase 1 [8] = target: T2, Beta-secretase 1; assay: Inhibition of human BACE1 (1 to 460 residues) expressed in HEK293 cells after 16 to 24 hrs by FRET assay; format: cell-based
Beta-secretase 1 [9] = target: T2, Beta-secretase 1; assay: Inhibition of human BACE1 catalytic domain preincubated for 30 mins followed by QSY7-EISEVNLDAEFC-Europium-amide substrate addition and measured after […] by HTRF assay
Beta-secretase 2 [10] = target: T1, Beta-secretase 2; assay: Inhibition of human BACE2 preincubated for 30 mins followed by QSY7- EISEVNLDAEFC-Eu-amide substrate addition and measured after […] by HTRF assay
Beta-secretase 1 [11] = target: T2, Beta-secretase 1; assay: Inhibition of BACE1 (unknown origin) assessed as reduction in amyloidbeta 40 level after 24 hrs by cell-based sandwich ELISA
Beta-secretase 1 [12] = target: T2, Beta-secretase 1; assay: Inhibition of human BACE1 expressed in Escherichia coli preincubated for 1 hr followed by Mca-Ser-Glu-Val-Asn-Leu-Asp-Ala-Glu-Phe-Lys(Dnp)-OH substrate addition by spectroflurimetric assay
[13] = Dissociation constant, pKa of the compound; format: physicochemical
Beta-secretase 1 [14] = target: T2, Beta-secretase 1; assay: Inhibition of BACE1 in human SK-N-BE(2) cells expressing human APP695 assessed as reduction in amyloidbeta level incubated for 18 hrs by sandwich ELISA; format: cell-based
Mus musculus = assay: In vivo inhibition of BACE1 in C57B1/6J mouse assessed as reduction in amyloidbeta 40 level in brain at 30 mg/kg, po measured at 4 hrs post dose by ELISA relative to control; format: functional
Beta-secretase 1 [15] = target: Beta-secretase 1 (Rattus norvegicus, UniProt P56819); assay: Inhibition of BACE1 in Wistar rat neuronal cell suspension after 1 to 3 days by ELISA
Beta-secretase 1 (Rattus norvegicus, UniProt P56819), sequence (P56819 whole entry): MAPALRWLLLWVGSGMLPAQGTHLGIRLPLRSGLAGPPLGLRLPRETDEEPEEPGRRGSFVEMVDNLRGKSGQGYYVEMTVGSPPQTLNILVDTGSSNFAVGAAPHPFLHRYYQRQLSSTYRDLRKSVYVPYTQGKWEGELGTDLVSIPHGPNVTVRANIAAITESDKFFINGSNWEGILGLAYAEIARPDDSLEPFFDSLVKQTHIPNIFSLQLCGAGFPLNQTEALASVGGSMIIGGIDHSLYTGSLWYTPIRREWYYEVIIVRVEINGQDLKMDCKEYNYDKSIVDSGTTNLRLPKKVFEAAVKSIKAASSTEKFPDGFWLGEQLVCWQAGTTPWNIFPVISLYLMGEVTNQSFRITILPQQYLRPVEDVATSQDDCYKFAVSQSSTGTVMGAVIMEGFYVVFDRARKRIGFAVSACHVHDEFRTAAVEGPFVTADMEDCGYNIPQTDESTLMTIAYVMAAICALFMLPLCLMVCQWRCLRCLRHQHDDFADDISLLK

Beta-secretase 1 [16] = target: T2, Beta-secretase 1; assay: Inhibition of C-terminal His6-tagged human BACE1 expressed in mammalian expression system preincubated for 1 hr followed by substrate addition and measured after 1 hr by FRET assay
Beta-secretase 2 [17] = target: T1, Beta-secretase 2; assay: Inhibition of C-terminal His6-tagged human BACE2 expressed in mammalian expression system preincubated for 1 hr followed by substrate addition and measured after 1 hr by FRET assay
Beta-secretase 1 [18] = target: T2, Beta-secretase 1; assay: Inhibition of BACE1 in human SH-SY5Y cells expressing betaAPP assessed as reduction in amyloidbeta (1 to 40 residues) level incubated for 24 hrs by HTRF assay; format: cell-based
Beta-secretase 1 [19] = target: T2, Beta-secretase 1; assay: Inhibition of human BACE1 using Biotin-XSEVNLDAEFRHDSGC as substrate incubated for 2 hrs by fluorescence method
Beta-secretase 1 [20] = target: T2, Beta-secretase 1; assay: Inhibition of human BACE1 using Biotin-XSEVNLDAEFRHDSGC as substrate incubated for […] by fluorescence method
Cathepsin D = Cathepsin D (Homo sapiens, UniProt P07339); assay: Inhibition of recombinant Cathepsin D (unknown origin) expressed in CHO cells preincubated for 1 hr followed by substrate addition and measured after 1 hr by FRET assay; format: cell-based
Cathepsin D, sequence (P07339 65-162 limits assumed): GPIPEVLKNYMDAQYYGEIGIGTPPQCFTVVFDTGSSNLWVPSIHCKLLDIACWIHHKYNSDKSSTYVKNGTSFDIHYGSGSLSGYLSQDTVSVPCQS
Cathepsin D, sequence (P07339 169-412 limits assumed): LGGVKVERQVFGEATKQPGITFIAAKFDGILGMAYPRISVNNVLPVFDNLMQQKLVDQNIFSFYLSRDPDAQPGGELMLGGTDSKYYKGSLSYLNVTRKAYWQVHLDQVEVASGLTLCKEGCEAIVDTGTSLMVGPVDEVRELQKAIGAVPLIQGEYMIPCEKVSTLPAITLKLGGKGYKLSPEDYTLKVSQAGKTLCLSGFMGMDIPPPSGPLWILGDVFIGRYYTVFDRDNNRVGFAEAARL

P-glycoprotein (ABCB1) = P-glycoprotein (ABCB1) (Homo sapiens, UniProt P08183); assay: Substrate activity at p-glycoprotein (unknown origin) assessed as efflux ratio; settings: not told
P-glycoprotein (ABCB1), sequence (P08183 whole entry): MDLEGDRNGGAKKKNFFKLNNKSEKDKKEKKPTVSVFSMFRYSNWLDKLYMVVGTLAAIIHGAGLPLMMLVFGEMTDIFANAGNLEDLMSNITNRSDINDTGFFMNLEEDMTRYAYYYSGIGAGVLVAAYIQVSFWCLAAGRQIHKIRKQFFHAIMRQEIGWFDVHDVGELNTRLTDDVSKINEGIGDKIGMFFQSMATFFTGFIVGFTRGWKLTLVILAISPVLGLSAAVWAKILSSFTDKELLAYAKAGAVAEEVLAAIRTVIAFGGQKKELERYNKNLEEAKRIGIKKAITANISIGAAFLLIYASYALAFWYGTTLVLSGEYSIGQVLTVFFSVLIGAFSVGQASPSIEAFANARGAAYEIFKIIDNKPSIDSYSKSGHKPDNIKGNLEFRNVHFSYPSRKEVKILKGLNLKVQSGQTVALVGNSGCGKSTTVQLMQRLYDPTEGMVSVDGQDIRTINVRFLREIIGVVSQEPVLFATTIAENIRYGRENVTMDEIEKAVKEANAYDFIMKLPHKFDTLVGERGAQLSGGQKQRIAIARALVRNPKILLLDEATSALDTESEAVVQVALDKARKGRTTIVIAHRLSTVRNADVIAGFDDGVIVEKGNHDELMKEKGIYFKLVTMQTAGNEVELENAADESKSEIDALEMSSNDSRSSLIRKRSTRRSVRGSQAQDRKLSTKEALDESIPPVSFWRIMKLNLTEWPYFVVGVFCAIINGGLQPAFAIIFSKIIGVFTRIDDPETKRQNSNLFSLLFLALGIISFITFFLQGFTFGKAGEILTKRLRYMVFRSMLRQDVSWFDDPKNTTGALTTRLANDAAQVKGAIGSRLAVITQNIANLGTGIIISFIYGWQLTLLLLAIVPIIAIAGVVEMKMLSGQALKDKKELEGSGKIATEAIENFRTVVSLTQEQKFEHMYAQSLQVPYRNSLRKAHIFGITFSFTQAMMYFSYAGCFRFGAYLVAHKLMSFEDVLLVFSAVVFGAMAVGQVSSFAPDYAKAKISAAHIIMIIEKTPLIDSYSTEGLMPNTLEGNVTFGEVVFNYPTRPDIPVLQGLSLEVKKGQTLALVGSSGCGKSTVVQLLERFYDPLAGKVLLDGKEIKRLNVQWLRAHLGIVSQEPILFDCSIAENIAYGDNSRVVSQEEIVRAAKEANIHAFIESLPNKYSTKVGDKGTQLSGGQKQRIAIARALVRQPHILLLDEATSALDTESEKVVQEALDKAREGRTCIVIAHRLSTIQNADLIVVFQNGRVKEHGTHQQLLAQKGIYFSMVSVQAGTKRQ

SMILES: N#Cc1ccc(C(=O)Nc2ccc(F)c([C@]34COC[C@H]3n3cccc3C(N)=N4)c2)nc1
- IC50 (Beta-secretase 2 [1]): 120 nM
- IC50 (Beta-secretase 1 [2]): 15.5 nM
- IC50 (Beta-secretase 1 [3]): 26.3 nM

SMILES: CN=S1(=O)C[C@@](C)(c2cc(-c3cc(-c4ncc(OC)cn4)no3)ccc2F)N=C(N)N1C (single isomer, unassigned)
- IC50 (Beta-secretase 1 [4]): 22 nM

SMILES: COc1ccc(C(=O)Nc2ccc(F)c([C@]3(C)CC[C@@](C)(C#N)C(N)=N3)c2)nc1
- IC50 (Beta-secretase 1 [5]): 9.8 nM
- IC50 (Beta-secretase 1 [6]): 6.9 nM
- IC50 (Beta-secretase 2 [7]): 66 nM

SMILES: COc1nc(N2C[C@H]3CSC(N)=N[C@@]3(c3ccns3)C2)nc(C)c1F
- IC50 (Beta-secretase 1 [8]): 172 nM

SMILES: CN=[S@@]1(=O)C[C@@](C)(c2cc(NC(=O)c3ccc(Cl)cn3)ccc2F)N=C(N)C1(C)C
- Ki (Beta-secretase 1 [9]): 3 nM
- Ki (Beta-secretase 2 [10]): 1 nM

SMILES: C[C@@]1(c2cc(NC(=O)c3ccc(C#N)cc3)ccc2F)Cn2cnc(C(F)F)c2C(N)=N1
- IC50 (Beta-secretase 2 [1]): 15.8 nM
- IC50 (Beta-secretase 1 [2]): 0.95 nM
- IC50 (Beta-secretase 1 [3]): 3.5 nM

SMILES: Cc1cc(C#N)cnc1C(=O)Nc1ccc(F)c([C@]2(C)CS3(=O)=NCCCCN3C(N)=N2)c1 (some centres undefined)
- IC50 (Beta-secretase 1 [4]): 2 nM

SMILES: C#CCOc1cnc(C(=O)Nc2cc(F)c(F)c([C@@]3(CF)N=C(N)S[C@H]4C[C@H]43)c2)cn1
- IC50 (Beta-secretase 1 [11]): 0.64 nM

SMILES: C[C@]1(c2cc(NC(=O)c3ccc(C#N)cn3)ccc2F)N=C(N)C[C@H]1C(F)(F)F
- IC50 (Beta-secretase 1 [12]): 182 nM
- pKa [13]: 9

SMILES: COc1ncc(C(=O)NC2CC2)c2c1C[C@]1(c3ccc(F)cc3F)N=C(N)SC[C@@H]1C2
- IC50 (Beta-secretase 1 [14]): 9.6 nM

SMILES: C[C@@]1(c2nc(NC(=O)c3ccc(C#N)cn3)ccc2F)CS2(=O)=NCCCCN2C(N)=N1 (some centres undefined)
- IC50 (Beta-secretase 1 [4]): 49 nM

SMILES: Cc1cc(C#N)cnc1C(=O)Nc1ccc(F)c([C@@]2(C)N=C(N)C(C)(C)[S@@]3(=O)=NCC[C@@H]23)c1
- inhibition in vivo at 30 mg/kg (Mus musculus): 86%

SMILES: COc1cnc(C(=O)Nc2ccc(F)c([C@]34CO[C@H](C(F)F)[C@H]3CSC(N)=N4)c2)cn1
- IC50 (Beta-secretase 1 [15]): 4 nM

SMILES: CN1CC2(C1)C(=N)N[C@](C)(c1cc(NC(=O)c3ccc(Cl)cn3)ccc1F)CS2(=O)=O
- Ki (Beta-secretase 1 [9]): 6.1 nM
- Ki (Beta-secretase 2 [10]): 1.2 nM

SMILES: NC1=N[C@](CF)(c2cc(NC(=O)c3cnc(Cl)cn3)ccc2F)[C@@H]2C[C@]2(C(F)F)S1
- IC50 (Beta-secretase 1 [16]): 1.6 nM
- IC50 (Beta-secretase 2 [17]): 13.2 nM
- IC50 (Beta-secretase 1 [11]): 3.7 nM

SMILES: CC#CCOc1cnc(C2=Nc3cc([C@]4(C)C[C@@H](C(F)(F)F)OC(N)=N4)c(F)cc3CN2)cn1
- IC50 (Beta-secretase 1 [4]): 9 nM

SMILES: C[C@H]1SC(N)=N[C@](C)(c2cc(NC(=O)c3ccc(OC(F)F)cn3)ccc2F)[C@H]1F
- IC50 (Beta-secretase 1 [18]): 1.2 nM
- IC50 (Beta-secretase 1 [19]): 4.77 nM

SMILES: C[C@]1(c2cc(NC(=O)c3ccc(C#N)cn3)ccc2F)N=C(N)OC2(COC2)[C@H]1F
- IC50 (Beta-secretase 1 [20]): 20.7 nM

SMILES: Cc1cc(Cl)cnc1C(=O)Nc1ccc2c(c1)[C@@]1(C)N=C(N)C(C)(C)S(=O)(=O)[C@@H]1CCO2
- IC50 (Beta-secretase 1 [11]): 6 nM
- IC50 (Cathepsin D): > 100000 nM

SMILES: COC[C@H]1SC(N)=N[C@](C)(c2cc(NC(=O)c3ccc(C#N)cn3)ccc2F)[C@H]1F
- IC50 (Beta-secretase 1 [18]): 1 nM

SMILES: NC1=N[C@@]2(c3cccc(NC(=O)c4cnc(C(F)F)cn4)c3)CCO[C@H]2CS1
- IC50 (Beta-secretase 1 [15]): 8 nM

SMILES: Cc1cc(C#N)cnc1C(=O)Nc1ccc(F)c([C@]2(C)CS(=O)(=NCC(F)(F)F)N(C)C(N)=N2)c1 (single isomer, unassigned)
- IC50 (Beta-secretase 1 [4]): 0.99 nM

SMILES: C[C@@]1(c2cc(NC(=O)c3ccc(OCF)cn3)ccc2F)C[C@@H](C(F)(F)F)SC(N)=N1
- efflux ratio (P-glycoprotein (ABCB1)): 0.7
- IC50 (Beta-secretase 2 [1]): 1 nM
- IC50 (Beta-secretase 1 [3]): 5.67 nM

SMILES: C#C[C@]1(c2cc(NC(=O)c3ccc(C#N)cn3)ccc2F)N=C(N)O[C@@H]2C[C@@H]21
- IC50 (Beta-secretase 1 [20]): 22.8 nM
